Experiments:
Assay type in all cases: cell-based, human
[1] = tested on: A2780cis cells; assay: Cell cycle progression, A2780cis; details: FEN1i plus cisplatin
Procedure: (§1) with ice cold PBS and fixed in 70% ethanol for 1h at -20°C. After removal of the fixative solution by centrifugation, cells were stained with 2 µg/ml of phospho-Histone (γH2AX) Ser139 (16202A, Millipore, UK) to detect DSBs.
(§2) Cell cycle progression: Cells were treated with 20 µg/ml RNase A (12091021, Invitrogen) and then 10 µg/ml Propidium Iodide (P4170, Sigma Aldrich) was added to determine the cell cycle distribution. The samples were analysed on a Beckman-Coulter FC500 flow cytometer using a 488nm laser for excitation and emission data for PI collected using a 620nm bandpass filter (FL3) and a 525nm bandpass filter (FL1) for FITC-anti-phospho-Histone H2A.X. […]
(§3) Graphical representation and statistical analysis was performed in GraphPad Prism 7 (GraphPad, La Jolla, USA).
(§4) 3D Spheroid assays: A2780_control and A2780 FEN1_ KO as well as A2780cis_control and A2780cis FEN1_ KO cells were seeded at 4500 cells/cm2 density in ultra-low attachment 6-well plates (174932, Thermo Fisher Scientific) and cultured in 3D Tumorsphere Medium (C28070, PromoCell, UK) at 37°C in a 5% CO2 atmosphere. Cells were keep in culture for 7-10 days, toping up with fresh medium every two days until spheroids structures were formed.

[2] = tested on: A2780cis cells; assay: γH2AX analysis, A2780cis; details: FEN1i plus cisplatin
Procedure: (§5) Graphical representation and statistical analysis of mean tail moment was performed in GraphPad Prism 6 (GraphPad, La Jolla, USA). All experiments were done in duplicate three times.
(§6) γH2AX FACS: For monitoring DNA double strand break accumulation by γH2AX FACS, 1.05×104 Cells/cm2 were seeded in 6-well plates and left overnight at 37°C in a 5% CO 2 atmosphere. Cisplatin (5µM) or FEN1i (10µM) was later added to cells and incubated for 24h and 48h at 37°C in a 5% CO2 atmosphere. Cells were collected by trypsinization, washed […]
as §1, §2
(§7) Graphical representation and statistical analysis was performed in GraphPad Prism 7 (GraphPad, La Jolla, USA). […]

[3] = tested on: POLβ KO A2780cis cells; assay: Cell cycle progression, POLβ KO A2780cis; details: FEN1i-treated
Procedure: as §1, §2, §3, §4

[4] = tested on: PEO4 cells; assay: Cell cycle progression, PEO4; details: FEN1i plus cisplatin
Procedure: as §1, §2, §3, §4

[5] = tested on: PEO1 cells; assay: Cell cycle progression, PEO1; details: FEN1i monotherapy
Procedure: as §1, §2, §3, §4

[6] = tested on: MRE11 deficient A2780cis cells; assay: FEN1 inhibitor cytotoxicity, MRE11 deficient A2780cis; details: vs A2780cis control
[7] = tested on: POLβ KO A2780cis cells; assay: γH2AX analysis, POLβ KO A2780cis; details: FEN1i-treated
Procedure: as §5, §6, §1, §2, §7

[8] = tested on: A2780cis cells; assay: Annexin V apoptosis detection, A2780cis; details: FEN1i plus cisplatin
Procedure: (§8) Apoptosis detection: Annexin V detection kit (556547, BD Biosciences) was used to quantify apoptotic cells. Briefly, cells were trypsinized, washed with PBS and the cellular pellet was re-suspended in Anexin Binding Buffer (1×). Following, FITC Anexin V and Propidium Iodide were added to the cells. After incubation, Anexin binding Buffer (1×) was added to each tube. All the samples were analysed on a Beckman-Coulter FC500 flow cytometer. The percentage of apoptotic cells was determined (late apoptotic = FITC-Annexin V positive, PI positive early apoptotic = FITC-Annexin V positive, PI negative; live cells = FITC-Annexin V negative, PI negative) and compared for untreated and treated samples. Graphical representation and statistical analysis was performed in GraphPad Prism 7 (GraphPad, La Jolla, USA).
as §4

[9] = tested on: POLβ KO A2780cis cells; assay: Annexin V apoptosis detection, POLβ KO A2780cis; details: FEN1i-treated
Procedure: as §8, §4

[10] = tested on: FEN1 mRNA in A2780cis cells; assay: qRT-PCR FEN1 mRNA expression, A2780cis; details: 24 h exposure to cisplatin
Procedure: (1:200, ab26343). Infrared dye-labelled secondary antibodies (Li-Cor) [IRDye 800CW Donkey Anti-Rabbit IgG and IRDye 680CW Donkey Anti-Mouse IgG] were incubated at a dilution of 1:10000 for 1 h. Membranes were scanned with a LiCor Odyssey machine (700 and 800 nm) to determine protein expression. ß-Tubulin or ß-actin was used as a loading controls for the whole cell lysates. GADPH and YYI were used as loading controls to cytoplasmic and nuclear fractions, respectively. First incubation was with FEN1 antibody and then imaged. This was followed by incubation with loading control and then imaged for analysis. Bar charts show means of optical density (O.D.) ± S.D and all data is representative of at least three independent experiments. qRT-PCR analysis of FEN1 gene expre ssion: RNA was extracted using the RNeasy Mini Kit (74104, Qiagen) and quantified using a Nanodrop 2000c (Thermo Fisher Scientific). cDNA synthesis was performed using the RT2 First Strand Kit (330404, Qiagen). Real time PCR was carried out on an Applied Biosystems […] FAST cycler.
Neutral COMET assay: 1.0x10^5 cells per well were seeded in 6 well tissue culture plates and incubated at 37°C and 5% CO2 overnight. […] Fifty comets were scored per sample using Comet Assay III/IV image analysis software (Perceptive Instruments, Bury St Edmonds, UK). […]

[11] = tested on: A2780 cells; assay: Clonogenic assay, A2780
Procedure: Clonogenic assay: In the clonogenic assay (colony formation assays), 32 cells/cm2 were seeded in 6-well plates and left at 37°C in a 5% CO2 atmosphere. Cisplatin (5µM) and/or FEN1i (10µM) and/or Importazole (5 µM, Selleckem, S8446 ) were added at the indicated concentrations and the plates were left at 37 °C in a 5% CO 2 atmosphere for 14 days. Later, the plates were washed with PBS, fixed and stained with a crystal violet, acetic acid and methanol solution and colonies were counted. […]

SMILES	cell cycle effect [1]	γH2AX nuclear foci [2]	cell cycle effect [3]	cell cycle effect [4]	cell cycle effect [5]	sensitivity to FEN1 inhibitor [6]	DSBs (γH2AX) [7]	apoptosis [8]	apoptosis [9]	FEN1 mRNA expression after cisplatin [10]	cisplatin sensitivity [11]
Cc1csc2c1c(=O)n(O)c(=O)n2-c1ccccc1 [PTPD, 3-hydroxy-5-methyl-1-phenylthieno [2,3 d]pyrimidine-2,4(1H,3H)-dione]	G2/M cell cycle arrest	induced nuclear γH2AX nuclear foci accumulation	G2/M cell cycle arrest	G2/M cell cycle arrest	S-phase and G2/M-phase cell cycle arrest	did not observe increased sensitivity	increased DSBs	accumulation of apoptotic cells	apoptosis	–	–
N.N.[Cl][Pt][Cl] [cisplatin]	–	–	–	–	–	–	–	–	–	increased by day 1 and persisted at least until day 4	cisplatin-sensitive

— paper PMC8070745, “FEN1 Blockade for Platinum Chemo-Sensitization and Synthetic Lethality in Epithelial Ovarian Cancers” (Cancers, 2021)
